Test results from patent US9499550B2 (BRISTOL-MYERS SQUIBB COMPANY, priority 2012, dated 2016).
Read-outs that look alike come from different tables or passages of the source.

Experiments:
[1] = tested on: HCV genotype 1b (Con1) replicon in HUH-7 cells; test: HCV replicon luciferase reporter assay, genotype 1b; format: cell-based; details: Hepatitis C virus, Huh-7, 72 h, 3 days incubation, read-out: LE_1b (EC50, range)
Procedure, shortened: (§1)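 Replicon inhibition for both genotypes was measured as Renilla luciferase signal (EnduRen, 7.5 μM final, 2 h) after 3-day, 37° C exposure of replicon-bearing HUH-7 cells in 4% FCS DMEM, 0.5% DMSO. The 1b construct carries S1179I; the 1a H77 construct carries P1496L and S2204I. Twenty-point, 3-fold dilutions were fitted four-parametrically for EC50, and CC50 was taken from multiplexed Cell Titer-Blue.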

[2] = tested on: HCV genotype 1a (H77 strain) replicon in HUH-7 cells; test: HCV replicon luciferase reporter assay, genotype 1a; format: cell-based; details: Hepatitis C virus, Huh-7, 72 h, 3 days incubation, read-out: LE_1a (EC50, range)
Procedure, shortened: as §1

[3] = HCV genotype 1b replicon luciferase
[4] = HCV genotype 1a replicon luciferase
[5] = GETYPE1B, HCV genotype 1b replicon luciferase
[6] = GETYPE1A, HCV genotype 1a replicon luciferase

SMILES | EC50 [1, 3] [nM] | EC50 [2, 4] [nM] | also measured
COc1ccc2c(O[C@@H]3C[C@H]4C(=O)N[C@]5(C(=O)NS(=O)(=O)C6(C)CC6)C[C@H]5/C=C\CC[C@@H](C)C[C@@H](C)[C@H](NC(=O)OC(C)(C)C(C)(F)F)C(=O)N4C3)nc(-c3ccc4c(c3)OCCO4)cc2c1 [Compound 5237, 3,3-difluoro-2-methylbutan-2-yl((2R,6S,7R,9R,13aS,14aR,16aS,Z)-2-((3-(2,3-dihydrobenzo[b][1,4]dioxin-6-yl)-6-methoxyisoquinolin-1-yl)oxy)-7,9-dimethyl-14a-(((1-methylcyclopropyl)sulfonyl)carbamoyl)-5,16-dioxo-1,2,3,5,6,7,8,9,10,11,13a,14,14a,15,16,16a-hexadecahydrocyclopropa[e]pyrrolo[1,2-a][1,4]diazacyclopentadecin-6-yl)carbamate] | < 5.46 | < 5.46 | 
COc1ccc2c(O[C@@H]3C[C@H]4C(=O)N[C@]5(C(=O)NS(=O)(=O)C6CC6)C[C@H]5/C=C\CC[C@H](C)C[C@@H](C)[C@H](NC(=O)OC(C)(C)C(F)(F)F)C(=O)N4C3)nc(-c3ccc(OC(C)C)c(F)c3)cc2c1 [Compound 3063, 1,1,1-trifluoro-2-methylpropan-2-yl((2R,6S,7R,9S,13aS,14aR,16aS,Z)-14a-((cyclopropylsulfonyl)carbamoyl)-2-((3-(3-fluoro-4-isopropoxyphenyl)-6-methoxyisoquinolin-1-yl)oxy)-7,9-dimethyl-5,16-dioxo-1,2,3,5,6,7,8,9,10,11,13a,14,14a,15,16,16a-hexadecahydrocyclopropa[e]pyrrolo[1,2-a][1,4]diazacyclopentadecin-6-yl)carbamate] |  |  | EC50 ([1]; HCV genotype 1b replicon luciferase assay, range class): < 5.46 nM; EC50 ([2]; HCV genotype 1a replicon luciferase assay, range class): 4.82 to 103 nM
COc1cc2ccnc(O[C@@H]3C[C@H]4C(=O)N[C@]5(C(=O)NS(=O)(=O)C6CC6)C[C@H]5/C=C\CC[C@@H](C)C[C@@H](C)[C@H](NC(=O)OC(C)(C)C)C(=O)N4C3)c2cc1OC [Compound 5391, tert-butyl ((2R,6S,7R,9R,13aS,14aR,16aS,Z)-14a-((cyclopropylsulfonyl)carbamoyl)-2-((6,7-dimethoxyisoquinolin-1-yl)oxy)-7,9-dimethyl-5,16-dioxo-1,2,3,5,6,7,8,9,10,11,13a,14,14a,15,16,16a-hexadecahydrocyclopropa[e]pyrrolo[1,2-a][1,4]diazacyclopentadecin-6-yl)carbamate] | 1.01 to 5 | 1.01 to 5 | 
COc1cc2ccnc(O[C@@H]3C[C@H]4C(=O)N[C@]5(C(=O)NS(=O)(=O)C6(F)CC6)C[C@H]5/C=C\CC[C@@H](C)C[C@@H](C)[C@H](NC(=O)OCC5(C)CC5)C(=O)N4C3)c2cc1F [Compound 4050, (1-methylcyclopropyl)methyl (2R,6S,7R,9R,13aS,14aR,16aS,Z)-2-(7-fluoro-6-methoxyisoquinolin-1-yloxy)-14a-(1-fluorocyclopropylsulfonylcarbamoyl)-7,9-dimethyl-5,16-dioxo-1,2,3,5,6,7,8,9,10,11,13a,14,14a,15,16,16a-hexadecahydrocyclopropa[e]pyrrolo[1,2-a][1,4]diazacyclopentadecin-6-ylcarbamate] | < 5.46 | < 5.46 | 
[2H]C([2H])([2H])C(C)(OC(=O)N[C@@H]1C(=O)N2C[C@H](Oc3nccc4cc(OC)ccc34)CC2C(=O)N[C@]2(C(=O)NS(=O)(=O)C3(C)CC3)C[C@H]2/C=C\CC[C@H](C)C[C@H]1C)C([2H])([2H])[2H] (stereo partly drawn) [Compound 5176, 1,1,1,3,3,3-hexadeutero-2-methylpropan-2-yl((2R,6S,7R,9S,13aS,14aR,16aS,Z)-2-((6-methoxyisoquinolin-1-yl)oxy)-7,9-dimethyl-14a-(((1-methylcyclopropyl)sulfonyl)carbamoyl)-5,16-dioxo-1,2,3,5,6,7,8,9,10,11,13a,14,14a,15,16,16a-hexadecahydrocyclopropa[e]pyrrolo[1,2-a][1,4]diazacyclopentadecin-6-yl)carbamate] | < 5.46 | 4.82 to 103 | 
CC[C@@H]1C[C@H](C)CC/C=C\[C@@H]2C[C@@]2(C(=O)NS(=O)(=O)C2(C)CC2)NC(=O)[C@@H]2C[C@@H](Oc3cc(OC)nc4cc(OC)c(F)cc34)CN2C(=O)[C@H]1NC(=O)OC(C)(C)C(C)(F)F [Compound 1200] |  |  | EC50 [1, 5]: 1.01 to 5 nM; EC50 [2, 6]: 1.01 to 5 nM
C[C@H]1CC/C=C\[C@@H]2C[C@@]2(C(=O)NS(=O)(=O)C2(CF)CC2)NC(=O)[C@@H]2C[C@@H](Oc3nc4c(c5ccccc35)OCCC4)CN2C(=O)[C@@H](NC(=O)OC(C)(C)C(F)(F)F)[C@H](C)C1 [Compound 6029, 1,1,1-trifluoro-2-methylpropan-2-yl((2R,6S,7R,9S,13aS,14aR,16aS,Z)-2-((3,4-dihydro-2H-pyrano[3,2-c]isoquinolin-6-yl)oxy)-14a-(((1-(fluoromethyl)cyclopropyl)sulfonyl)carbamoyl)-7,9-dimethyl-5,16-dioxo-1,2,3,5,6,7,8,9,10,11,13a,14,14a,15,16,16a-hexadecahydrocyclopropa[e]pyrrolo[1,2-a][1,4]diazacyclopentadecin-6-yl)carbamate] | 4.82 to 103 | 4.82 to 103 | 
COc1cnc(O[C@@H]2C[C@H]3C(=O)N[C@]4(C(=O)NS(=O)(=O)C5(CF)CC5)C[C@H]4/C=C\CC[C@@H](C)C[C@@H](C)[C@H](NC(=O)OC(C)(C)C(F)(F)F)C(=O)N3C2)c2cccc(Cl)c12 [Compound 4129] |  |  | EC50 [1, 5]: < 5.46 nM; EC50 [2, 6]: < 5.46 nM
COc1nnc(O[C@@H]2C[C@H]3C(=O)N[C@]4(C(=O)NS(=O)(=O)C5CC5)C[C@H]4/C=C\CC[C@H](C)C[C@@H](C)[C@H](NC(=O)OC(C)(C)C(F)(F)F)C(=O)N3C2)c2ccccc12 [Compound 5005, 1,1,1-trifluoro-2-methylpropan-2-yl((2R,6S,7R,9S,13aS,14aR,16aS,Z)-14a-((cyclopropylsulfonyl)carbamoyl)-2-((4-methoxyphthalazin-1-yl)oxy)-7,9-dimethyl-5,16-dioxo-1,2,3,5,6,7,8,9,10,11,13a,14,14a,15,16,16a-hexadecahydrocyclopropa[e]pyrrolo[1,2-a][1,4]diazacyclopentadecin-6-yl)carbamate] | < 5.46 | < 5.46 | 
COc1cnc(O[C@@H]2C[C@H]3C(=O)N[C@]4(C(=O)NS(=O)(=O)C5(CO)CC5)C[C@H]4/C=C\CC[C@H](C)C[C@@H](C)[C@H](NC(=O)OC(C)(C)C(F)(F)F)C(=O)N3C2)c2ccccc12 [Compound 4111] |  |  | EC50 [1, 5]: 4.82 to 103 nM; EC50 [2, 6]: > 87.4 nM
CC[C@@H]1C[C@H](C)CC/C=C\[C@@H]2C[C@@]2(C(=O)NS(=O)(=O)C2CC2)NC(=O)[C@@H]2C[C@@H](Oc3nc4cc(OC)c(F)cc4nc3C(F)(F)F)CN2C(=O)[C@H]1NC(=O)OC(C)(C)C(F)(F)F [Compound 4267] |  |  | EC50 [1, 5]: 1.01 to 5 nM; EC50 [2, 6]: 5.01 to 35 nM
CCOc1ccc2nc(C(F)(F)F)c(O[C@@H]3C[C@H]4C(=O)N[C@]5(C(=O)NS(=O)(=O)C6(C)CC6)C[C@H]5/C=C\CC[C@@H](C)C[C@@H](CC)[C@H](NC(=O)OC(C)(C)C)C(=O)N4C3)nc2c1 [Compound 4363, tert-butyl ((2R,6S,7R,9R,13aS,14aR,16aS,Z)-2-((7-ethoxy-3-(trifluoromethyl)quinoxalin-2-yl)oxy)-7-ethyl-9-methyl-14a-(((1-methylcyclopropyl)sulfonyl)carbamoyl)-5,16-dioxo-1,2,3,5,6,7,8,9,10,11,13a,14,14a,15,16,16a-hexadecahydrocyclopropa[e]pyrrolo[1,2-a][1,4]diazacyclopentadecin-6-yl)carbamate] | 0.1 to 0.5 | 1.01 to 5 | 
COc1cc2cc(-c3ccc(OC(C)C)cc3)nc(O[C@@H]3C[C@H]4C(=O)N[C@]5(C(=O)NS(=O)(=O)C6CC6)C[C@H]5/C=C\CC[C@H](C)C[C@@H](C)[C@H](NC(=O)O[C@@H]5C[C@@H]6C[C@@H]6C5)C(=O)N4C3)c2cc1F [Compound 3187, (1R,3r,5S)-bicyclo[3.1.0]hexan-3-yl((2R,6S,7R,9S,13aS,14aR,16aS,Z)-14a-((cyclopropylsulfonyl)carbamoyl)-2-((7-fluoro-3-(4-isopropoxyphenyl)-6-methoxyisoquinolin-1-yl)oxy)-7,9-dimethyl-5,16-dioxo-1,2,3,5,6,7,8,9,10,11,13a,14,14a,15,16,16a-hexadecahydrocyclopropa[e]pyrrolo[1,2-a][1,4]diazacyclopentadecin-6-yl)carbamate] | < 5.46 | < 5.46 | 
CC[C@@H]1C[C@H](C)CC/C=C\[C@@H]2C[C@@]2(C(=O)NS(=O)(=O)C2(C)CC2)NC(=O)[C@@H]2C[C@@H](Oc3ncc(OC)c4ccc(F)cc34)CN2C(=O)[C@H]1NC(=O)OC(C)(C)C(C)(F)F [Compound 5455, 3,3-difluoro-2-methylbutan-2-yl((2R,6S,7R,9R,13aS,14aR,16aS,Z)-7-ethyl-2-((7-fluoro-4-methoxyisoquinolin-1-yl)oxy)-9-methyl-14a-(((1-methylcyclopropyl)sulfonyl)carbamoyl)-5,16-dioxo-1,2,3,5,6,7,8,9,10,11,13a,14,14a,15,16,16a-hexadecahydrocyclopropa[e]pyrrolo[1,2-a][1,4]diazacyclopentadecin-6-yl)carbamate] | 0.1 to 0.5 | 1.01 to 5 | 
